The numbers were not newly measured in patent US20250339366A1, “AN ORODISPERSIBLE TABLET OF RIVAROXABAN” (INTAS PHARMACEUTICALS LTD., priority 2022, published 2025), which cites them from elsewhere.

For the molecule `O=C(NC[C@H]1CN(c2ccc(N3CCOCC3=O)cc2)C(=O)O1)c1ccc(Cl)s1` [Rivaroxaban, 5-Chloro-N-({(5S)-2-oxo-3-[4-(3-oxo-4-morpholinyl)phenyl]-1,3-oxzolidin-5-yl}methyl)-2-thiophene-carboxamide], the Solubility in water result is given as “practically insoluble in water”.
